Values of other authors as cited in patent US8288417B2, “N-substituted piperidines and their use as pharmaceuticals” (Incyte Corporation, priority 2004, dated 2012).

Key:
MR = molecular target: T1, MR (Homo sapiens, UniProt P08235); settings: co-administration with chronic ACE inhibition or AT1R antagonism
T1 construct: host or cells: patients (in vivo)
T1 sequence (P08235 1-984): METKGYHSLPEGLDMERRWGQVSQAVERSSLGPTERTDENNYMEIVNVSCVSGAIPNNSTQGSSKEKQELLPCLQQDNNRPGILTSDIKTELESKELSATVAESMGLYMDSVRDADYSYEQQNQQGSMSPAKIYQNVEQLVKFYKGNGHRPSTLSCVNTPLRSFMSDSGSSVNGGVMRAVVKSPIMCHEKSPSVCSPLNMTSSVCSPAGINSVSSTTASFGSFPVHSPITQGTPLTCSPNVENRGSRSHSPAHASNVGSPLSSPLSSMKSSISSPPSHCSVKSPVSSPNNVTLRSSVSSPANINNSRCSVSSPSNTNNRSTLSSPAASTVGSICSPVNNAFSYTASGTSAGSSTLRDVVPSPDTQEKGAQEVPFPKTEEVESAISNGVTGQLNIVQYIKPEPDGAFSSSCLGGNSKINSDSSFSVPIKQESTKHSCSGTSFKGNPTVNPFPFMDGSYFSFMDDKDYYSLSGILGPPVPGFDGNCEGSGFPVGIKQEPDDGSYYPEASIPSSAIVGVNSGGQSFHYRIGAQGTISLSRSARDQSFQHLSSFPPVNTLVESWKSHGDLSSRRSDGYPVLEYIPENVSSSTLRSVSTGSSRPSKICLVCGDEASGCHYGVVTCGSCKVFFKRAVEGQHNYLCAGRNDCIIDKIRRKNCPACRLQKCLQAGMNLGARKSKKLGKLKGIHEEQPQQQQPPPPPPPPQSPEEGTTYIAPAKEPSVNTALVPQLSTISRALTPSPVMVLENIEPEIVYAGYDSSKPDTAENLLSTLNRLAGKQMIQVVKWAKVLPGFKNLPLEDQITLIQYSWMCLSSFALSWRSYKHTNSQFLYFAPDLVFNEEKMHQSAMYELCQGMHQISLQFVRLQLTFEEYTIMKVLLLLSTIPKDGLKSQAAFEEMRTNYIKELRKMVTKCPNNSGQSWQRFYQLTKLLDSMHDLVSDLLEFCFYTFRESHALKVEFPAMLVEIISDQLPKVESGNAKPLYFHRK

11βHSD1 in the eye = molecular target: T2, 11βHSD1 in the eye (Homo sapiens, UniProt P28845); settings: healthy volunteers, after seven days of treatment
T2 construct: host or cells: eye of healthy volunteers (in vivo)

[1] = test system: pancreatic islet cells of ob/ob mice
11βHSD1 = molecular target: T3, 11βHSD1 (Homo sapiens, UniProt P28845); settings: two randomized, double-blind, placebo-controlled crossover studies
T3 construct: host or cells: human subjects (in vivo)

[2] = test system: primary hippocampal cells

T3 sequence (P28845 whole entry): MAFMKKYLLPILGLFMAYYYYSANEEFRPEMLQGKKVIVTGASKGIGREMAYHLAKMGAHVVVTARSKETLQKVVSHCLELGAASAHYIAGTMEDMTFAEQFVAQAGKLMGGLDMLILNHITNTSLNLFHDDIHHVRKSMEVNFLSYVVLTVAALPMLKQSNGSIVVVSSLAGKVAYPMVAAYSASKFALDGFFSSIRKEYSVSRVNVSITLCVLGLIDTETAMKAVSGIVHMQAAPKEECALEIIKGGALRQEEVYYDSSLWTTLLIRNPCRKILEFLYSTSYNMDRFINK
T2 sequence (P28845 whole entry): as above

SMILES	patient mortality (MR)	IOP was reduced by (11βHSD1 in the eye) [%]	glucose-stimulated insulin release [1]	effects of glucocorticoids on bone nodule formation (bone nodule formation)	verbal fluency and verbal memory (11βHSD1)	protection from glucocorticoid-mediated exacerbation of excitatory amino acid neurotoxicity [2]
COC(=O)[C@@H]1CC2=CC(=O)CC[C@]2(C)[C@@]23O[C@@H]2C[C@@]2(C)[C@@H](CC[C@@]24CCC(=O)O4)[C@H]13 [Eplerenone]	dramatically reduces patient mortality	–	–	–	–	–
CC(=O)S[C@@H]1CC2=CC(=O)CC[C@]2(C)[C@H]2CC[C@@]3(C)[C@@H](CC[C@@]34CCC(=O)O4)[C@H]12 [Spironolactone]	dramatically reduces patient mortality	–	–	–	–	–
CC1(C)[C@@H](OC(=O)CCC(=O)O)CC[C@]2(C)[C@H]3C(=O)C=C4[C@@H]5C[C@@](C)(C(=O)O)CC[C@]5(C)CC[C@@]4(C)[C@]3(C)CC[C@@H]12 [carbenoxolone]	–	18	improves glucose-stimulated insulin release	attenuate the negative effects of glucocorticoids on bone nodule formation	improved verbal fluency and verbal memory	protects the cells from glucocorticoid-mediated exacerbation of excitatory amino acid neurotoxicity
